# In patent US9617324B2, “Ameliorating agent for blood-brain barrier dysfunction” (Nagasaki University, priority 2012, dated 2017):
# “Also recorded” adds a separate entry of the source. Where two headings read alike, the source gives them in different places. No end group written: not given here.
# Experiments:
# [1] = test system: model mice of cerebral ischemia (tMCAO); experiment: tMCAO (ischemia for an hour, reperfusion) model, clinical scores of motor dysfunction; format: in vivo, mouse; conditions: for protective effect on motor dysfunction: i.v. after an hour after ischemia, 1 to 10 mg/kg
# Experimental: The model mice of cerebral ischemia produced by left middle cerebral artery occlusion in C57BL/J6 mice were maintained for an hour, followed by reperfusion. P30 (1 mg/kg or 3 mg/kg) or P6 (1 mg/kg) was administered into the caudal vein after an hour of reperfusion. Thereafter, the course of the mice was observed every 24 hours to evaluate motor function and existence. The clinical scores showing motor dysfunction are evaluated using the following five grades: 1: unable to completely extend the right front limb, 2: clockwise circling behavior, 3: unable to hold the position and incline to the right, 4: disappearance of spontaneous movement, and 5: death.
# In FIG. 5, the data indicated by white squire indicate values when 0.1% DMSO in PBS (vehicle) was administered into the caudal vein in an amount of 100 μl/10 g after an hour of tMCAO for an hour. […] Black circle and black rhombus in the upper graph indicate the results of 1 mg/kg and 3 mg/kg P30 intravenous (i.v.) administration, respectively, and black circle in the lower graph indicates the results of 1 mg/kg P6 intravenous (i.v.) administration.
# (§1) To evaluate the degree of motor function disorders associated with cerebral ischemia, the neurological scores (Clinical Scores) according to the following definition were used. In addition, two grade evaluation was carried out using numerical values 1 to 4 (when scores 1 and 2 were shown, 1.5 was used).
# (§2) 1: motor function disorders of the right front limb, 2: one-directional behavior, 3: unable to hold the position and incline, 4: disappearance of spontaneous movement, and 5: death.
# [2] = test system: tMCAO model (ischemia for 4 hours), tPA-induced motor dysfunction; experiment: tMCAO for four hours with tPA: clinical score and mortality after a day; format: in vivo, mouse; conditions: for death of mice: 10 mg/kg peptide with tPA after 4 hours of tMCAO ischemia
# Experimental: After tMCAO for four hours, the clinical score and mortality rate were evaluated after a day (FIG. 8). […] The tMCAO for four hours corresponds to the state after 3 hours from the onset of ischemic diseases.
# as §1, §2
# [3] = test system: thrombotic cerebral infarction PIT model; experiment: PIT model: damaged cerebral region by TTC staining; format: in vivo, mouse; conditions: for damaged cerebral region by TTC staining: second Example 13
# [4] = test system: tMCAO model (ischemia for 4 hours), tPA-induced cerebral hemorrhage
# Experimental: Mice were anesthetized with 3% isoflurane (Escain (registered trademark), Mylan Seiyaku Ltd., Tokyo, Japan) (Small animal anesthetizer MK-A100, Muromachi Kikai Co., Ltd., Tokyo, Japan). On a constant-temperature table at 37° C. (Ikemoto Scientific Technology Co., Ltd., Tokyo, Japan), the skin in the pharyngeal region is cut lengthwise into about 2 cm with scissors. The skin was drawn to the right using a hard silk thread (hard No. 8, Natsume Seisakusho Co., Ltd.) to secure a visual field. Using a stereoscopic microscope, the left common carotid artery which is located on the left side of the trachea is secured with a hard silk thread while exfoliating connective tissue, nerves and the like. By following the common carotid artery upward, the artery is separated into the internal carotid artery and the external carotid artery, and the external carotid artery on the left near side is tightly tied at two points with a soft silk thread and the space between the points is cut. A thin vessel extending upward from the internal carotid artery is secured with a soft silk thread. The soft silk thread and hard silk thread are strongly drawn to stop blood flow and an incision is made in the internal carotid artery with scissors. From that, an obturator is inserted 1 to 1.5 cm and the middle cerebral artery is occluded. The internal carotid artery was tied together with the obturator using a soft silk thread to fix the obturator. A soft silk thread is passed under the hard silk thread drawing and the common carotid artery is tied thereby on the near side of the hard silk thread, and the hard silk thread is then removed. The breath is sutured at two points with a soft silk thread. In the case of the model of transient middle cerebral artery occlusion (tMCAO) of the present problem, anesthesia was applied to the mice with 3% isoflurane again after an hour or 4 hours on a constant-temperature table at 37° C., and the soft silk thread suturing the breath is untied to open the breath. The soft silk thread tying the internal carotid artery was loosened and the obturator was withdrawn, and the internal carotid artery was immediately tied again.
# [5] = test system: thrombotic cerebral infarction PIT model
# proMMP-9 = experiment: Gelatin zymography of proMMP-9 activity after retinal ischemia; format: in vivo, mouse; conditions: 1 pmol
# Description: It is known that a tight junction protein, occluding, is degraded by metalloproteinases (MMP) whose expression is increased by ischemia (J Cereb Blood Flow Metab, 2007. 27(4): p. 697-709). It is believed that MMP-9, in particular, plays a primary role in a failure of a blood-organ barrier by ischemia (J Cereb Blood Flow Metab, 2000. 20(12): p. 1681-9).
# The expression level of MMP-9 is commonly low and the expression is derived by various stimuli by ischemia.
# [6] = peptide in combination with tPA, peptide dose not given
# [7] = second Example 13, peptide in combination with tPA, peptide dose not given
substance,measurement,setting,value
pEEVNEE (not fully specified (residue 1); listed as Homo sapiens) [Peptide B],protective effect on motor dysfunction,[1],dose-dependently protective effect on motor dysfunction; also recorded: high protective activity
same,dose showing the (greatest) protective effect on motor dysfunction,"[1]; i.v., tMCAO 60 min ischemia",10 mg/kg
same,tPA-induced exacerbation of motor dysfunction,"[2]; 10 mg/kg peptide coadministered i.v. with tPA, 24 hours after ischemia",tended to inhibit
same,damaged cerebral region by TTC staining,[3]; [6],42±6.1%
same,tPA-induced cerebral hemorrhage,[4]; 10 mg/kg peptide coadministered with tPA,did not have an influence
same,Clinical score,[5]; [7],1±0
Peptide Q: P6 derivative peptide (EEVDQE),damaged cerebral region by TTC staining,[3]; [6],55±1.4%
same,Clinical score,[5]; [7],1.7±0.5
"tPA: thrombolytic agent, tissue plasminogen activator, purchased from Kyowa Hakko Kirin Co., Ltd. [reference compound]",mortality rate after a day of ischemia,[2]; 10 mg/kg tPA alone,35.7%
same,motor dysfunction (clinical score) after a day,"[2]; 10 mg/kg tPA alone, immediately before reperfusion",deteriorated
same,motor dysfunction score after a day,"[2]; 10 mg/kg tPA treatment, tMCAO ischemia for 4 hours, score 2 without tPA",3.5
same,damaged cerebral region by TTC staining,[3]; tPA alone after 6 hours of PIT treatment,44±2.6%
same,protective effect (infarct region),[3]; tPA administered after 6 hours of ischemia,the protective effect was not confirmed
same,infarct region,[3]; tPA treatment after an hour after thrombus formation,significant decrease in the infarct region
same,protective effect (infarct region),[3]; tPA treatment time delayed (2 to 4 hours),protective effect was reduced
same,hemorrhagic region,"[4]; mouse, in vivo, iv, 10 mg/kg",0.7±0.2 mm^2
same,Clinical score,"[5]; Example 12, tPA-alone after 6 hours of PIT treatment",1.5±0.2
same,Clinical score,"[5]; second Example 13, tPA alone after 6 hours of PIT treatment",1.4±0.1
Peptide R: P6 derivative peptide (EEVDQE),damaged cerebral region by TTC staining,[3]; [6],54±4.5%
same,Clinical score,[5]; [7],1.1±0.1
Peptide L: P6 derivative peptide (NEIDEE),damaged cerebral region by TTC staining,[3]; [6],46±5.6%
same,Clinical score,[5]; [7],1.3±0.2
Peptide S: P6 derivative peptide (EEVDEE),damaged cerebral region by TTC staining,[3]; [6],51±5.7%
same,Clinical score,[5]; [7],1.1±0.2
pEEVDEE (not fully specified (residue 1); listed as Homo sapiens) [Peptide D],protective effect on motor dysfunction,[1],not as good as that of Peptide A and Peptide B
same,death of mice,[2],all mice were died
same,damaged cerebral region by TTC staining,[3]; [6],52±7.2%
same,Clinical score,[5]; [7],1±0
"NEVDQE [Peptide A, NEVDQE]",hemorrhage in the cerebral cortex region,"[4]; mouse, in vivo, iv, 1 mg/kg",0.09±0.01 mm^2
same,hemorrhage in the cerebral cortex region,"[4]; mouse, in vivo, iv, 3 mg/kg",0.06±0.01 mm^2
same,hemorrhage in the cerebral cortex region,"[4]; mouse, in vivo, iv, 10 mg/kg",0.08±0.01 mm^2
"NEVDEE-NH2 [Peptide E, NEVDEE-NH2]",death of mice,[2],all mice were died
"NEVDEE [Peptide P6, NEVDEE]",cerebral hemorrhage,"[4]; mouse, in vivo",trend to exacerbate cerebral hemorrhage
Peptide P: P6 derivative peptide (EEVNEE),damaged cerebral region by TTC staining,[3]; [6],47±5.1%
same,Clinical score,[5]; [7],1.1±0.1
"Ac-NEVDEE-NH2 [Peptide F, N-acetyl-P6-amide]",increase in activity of proMMP-9 by ischemia,proMMP-9,effect equal to that of P6
same,Clinical score,[5]; [7],1.2±0.2
